Reference: patent publication US20030065292A1, “Ozonated medical devices and methods of using ozone to prevent complications from indwelling medical devices” (priority 2001, published 2003)

How the values were obtained:
[1] = test system: Escherichia coli strain 2131; test: Ozone killing of microorganisms on catheter surfaces; type: cell-based
Experimental: A clinical isolate of Escherichia coli strain 2131 that had caused catheter-related infection was used. The organism was grown overnight in tryptic soy broth (TSB) at 37° C., then diluted to a concentration of 10^4 cfu/ml of TSB. The lumens of four 7-french, 20 -cm, triple-lumen polyurethane central venous catheters were filled with this working bacterial suspension and the catheters were then incubated at 25° C. for 4 hours. After draining the bacterial suspension from the lumens of catheters, the lumens were flushed with 1 ml of sterile normal saline. Using a closed dynamic flow system, the lumens of the four catheters were continually perfused for 4 hours at 25° C. with a recirculating total volume of 3 ml of sterile normal saline at a flow rate of 0.1 ml/minute. Ozone was continuously bubbled into the beaker containing the saline perfusing the lumens of two catheters (experimental arm), but no ozone was bubbled into the beaker containing the saline perfusing the lumens of the other two catheters (control arm). Four hours later, two 2 -cm segments from each of the four catheters (two in the experimental arm, and two in the control arm) were cultured onto blood agar plates using the sonication technique. Samples of the saline running through the experimental and control catheters were also inoculated onto blood agar plates. Colony counts were determined at 24 hours after incubation of the agar plates at 37° C. The following table summarizes the results of cultures of catheter segments: […]

[2] = test system: Escherichia coli strain 2131; test: Ozone killing of microorganisms in solution; type: cell-based; conditions: 25° C.
Experimental: A clinical isolate of Escherichia coli strain 2131 that had caused catheter-related infection was used. The organism was grown overnight in tryptic soy broth (TSB) at 37° C., then diluted to a concentration of 10^4 cfU/ml of normal saline. A 120 ml aliquot of the 10^4 cfU/ml working bacterial suspension was placed in each of two beakers at 25° C.: (1) In the experimental arm, ozone was bubbled into the bacterial suspension; (2) In the control arm, no ozone was bubbled. Four hours later, three samples of the bacterial suspension in each beaker and serial dilutions were inoculated onto blood agar plates. Colony counts were determined at 24 hours after incubation of the agar plates at 37° C. The following table summarizes the results of cultures: […]

Structure (SMILES): O=[O+][O-] [ozone]
- Number of E. coli colony forming units cultured from 2-cm catheter segments ([1]; experimental arm: catheter lumens perfused 4 hours at 25° C. with saline continuously bubbled with ozone, sonication technique): 0 colony forming units
- Ozone killing of E. coli adhered to catheter surface (result in words) ([1]; lumens perfused 4 hours with ozone-bubbled saline): kills E. coli that has adhered to the catheter surface
- Concentration of E. coli in the saline solution used to perfuse the infected lumens of catheters ([1]; ozone-bubbled saline after 4 hours perfusion, control 42×10^2 cfu/ml): 9×10^2 cfu/ml
- Number of E. coli colony forming units per ml (cfu/ml) ([2]; experimental arm: ozone bubbled into 10^4 cfu/ml bacterial suspension in normal saline, sampled four hours later, colony counts at 24 hours): 0 cfu/ml
- Ozone killing of E. coli in solution (result in words) ([2]; ozone bubbled into bacterial suspension, 4 hours): kills E. coli in solution
